The target of series [1] is T1, Peroxisome proliferator-activated receptor alpha (Homo sapiens) (UniProt Q07869).
T1 sequence (whole entry): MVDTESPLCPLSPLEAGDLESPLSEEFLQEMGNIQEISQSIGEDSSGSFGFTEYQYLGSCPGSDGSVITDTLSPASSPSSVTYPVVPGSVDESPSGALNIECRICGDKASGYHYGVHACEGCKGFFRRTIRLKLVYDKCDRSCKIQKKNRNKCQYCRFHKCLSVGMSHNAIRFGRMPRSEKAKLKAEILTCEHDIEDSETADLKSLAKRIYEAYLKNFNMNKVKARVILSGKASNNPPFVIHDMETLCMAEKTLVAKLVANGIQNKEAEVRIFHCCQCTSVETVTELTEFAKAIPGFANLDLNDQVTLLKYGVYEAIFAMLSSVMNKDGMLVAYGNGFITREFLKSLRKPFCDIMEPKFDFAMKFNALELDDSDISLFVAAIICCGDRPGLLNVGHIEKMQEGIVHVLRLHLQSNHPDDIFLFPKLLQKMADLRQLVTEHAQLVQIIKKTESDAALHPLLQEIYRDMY
As to the kind of experiment: Agonist activity at PPARalpha (unknown origin) assessed as maximal activation at 10 nM relative to control. To be noted: filed as agonist.

The target in series [2] is T2, Peroxisome proliferator-activated receptor delta (Homo sapiens) (UniProt Q03181).
T2 sequence (whole entry): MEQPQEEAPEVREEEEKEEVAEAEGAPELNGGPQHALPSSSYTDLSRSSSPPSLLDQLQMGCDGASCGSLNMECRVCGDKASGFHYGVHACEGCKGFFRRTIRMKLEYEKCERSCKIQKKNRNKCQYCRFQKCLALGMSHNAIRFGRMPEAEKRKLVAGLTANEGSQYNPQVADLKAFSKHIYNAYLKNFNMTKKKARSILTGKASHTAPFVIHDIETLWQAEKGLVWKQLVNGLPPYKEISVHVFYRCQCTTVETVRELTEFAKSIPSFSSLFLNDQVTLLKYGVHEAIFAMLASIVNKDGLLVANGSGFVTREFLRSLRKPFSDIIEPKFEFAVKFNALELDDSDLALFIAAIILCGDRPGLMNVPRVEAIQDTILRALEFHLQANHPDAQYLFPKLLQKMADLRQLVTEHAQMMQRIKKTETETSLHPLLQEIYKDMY
As to the kind of experiment: Agonist activity at PPARdelta (unknown origin) assessed as maximal activation at 10 nM relative to control. To be noted: filed as agonist.

Series [3] has as its target T3, Peroxisome proliferator-activated receptor gamma (Homo sapiens) (UniProt P37231).
T3 sequence (whole entry): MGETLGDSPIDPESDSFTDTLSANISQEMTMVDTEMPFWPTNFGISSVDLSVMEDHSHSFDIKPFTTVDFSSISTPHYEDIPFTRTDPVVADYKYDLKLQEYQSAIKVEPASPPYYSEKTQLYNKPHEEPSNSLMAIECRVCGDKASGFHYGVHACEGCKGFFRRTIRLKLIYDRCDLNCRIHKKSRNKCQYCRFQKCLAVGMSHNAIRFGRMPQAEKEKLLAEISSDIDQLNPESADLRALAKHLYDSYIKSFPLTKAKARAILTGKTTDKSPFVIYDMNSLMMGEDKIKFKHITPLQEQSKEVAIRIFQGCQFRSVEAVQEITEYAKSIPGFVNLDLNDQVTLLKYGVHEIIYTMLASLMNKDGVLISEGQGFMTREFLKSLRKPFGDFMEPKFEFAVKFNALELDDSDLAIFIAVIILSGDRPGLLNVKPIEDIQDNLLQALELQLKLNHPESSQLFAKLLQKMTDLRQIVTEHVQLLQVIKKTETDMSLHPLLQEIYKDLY
As to the kind of experiment: Agonist activity at PPARgamma (unknown origin) assessed as maximal activation at 10 nM relative to control. To be noted: filed as agonist.

Series [4] is described as follows: Microsomal stability in human liver microsomes assessed as terminal elimination half life at 1 uM measured upto 60 mins by LC-MS/MS-11 analysis. The series is classed as ADME, Microsome. For orientation: Liver microsomes are vesicles of endoplasmic reticulum, rich in cytochrome P450 enzymes.
Series [5] is described as follows: Intrinsic clearance in human liver microsomes at 1 uM measured upto 60 mins by LC-MS/MS-11 analysis. It counts as ADME, Microsome. The note with it: read-out: CLH.
For series [6], the target named is T4, Peroxisome proliferator-activated receptor alpha (Homo sapiens, UniProt Q07869).
T4 sequence (Q07869 whole entry): T1 sequence (whole entry)
As to the kind of experiment: Agonist activity at PPARalpha (unknown origin).

Series [7] addresses T5, Peroxisome proliferator-activated receptor delta (Homo sapiens, UniProt Q03181).
T5 sequence (Q03181 whole entry): T2 sequence (whole entry)
As to the kind of experiment: Agonist activity at PPARdelta (unknown origin).

The target of series [8] is T6, Peroxisome proliferator-activated receptor gamma (Homo sapiens, UniProt P37231).
T6 sequence (P37231 whole entry): T3 sequence (whole entry)
As to the kind of experiment: Agonist activity at PPARgamma (unknown origin).

pEC50: −log10 of the molar value. Bounds are passed on as bounds.

What is called half-life is how long it takes for the measured level to halve. The term pEC50 denotes the EC50 on a negative log10 scale, so that one unit is a factor of ten. Read a high pEC50 as a small EC50.

For `CSc1ccc(C(=O)/C=C/c2cc(C)c(OC(C)(C)C(=O)O)c(C)c2)cc1` [ELAFIBRANOR], the Emax in series [1] came out at 82%; in series [2], 52%; in series [3] it was 115%. Moreover, the half-life at 1 µM in series [4] was above 2 h. Further, the CLint scaled at 1 µM in series [5] was 116 mL/min/kg.
On to `Cc1cc(Cc2cc(-c3ccc(Br)cc3)on2)cc(C)c1OC(C)(C)C(=O)O`, for which the pEC50 in series [6] was 7.19; in series [7], 7.62; in series [8] it was 5.56. The Emax is 135% in series [1], 75% in series [2] and 118% in series [3].

For the origin of these results see ChEMBL document CHEMBL5042526, “Design, Synthesis, and Biological Evaluation of Triazolone Derivatives as Potent PPARα/δ Dual Agonists for the Treatment of Nonalcoholic Steatohepatitis” (J Med Chem, 2022).
